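Method: 48-hour compound exposure of cells in 96-well plates, five concentrations, linear interpolation of endpoints. TGI is the concentration that stops growth completely.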
Key:
Assay in all cases: growth of human tumour cells (NCI), 48 h
TK-10 renal = tested on: TK-10 renal
SN12C renal = tested on: SN12C renal
RPMI-8226 leukemia = tested on: RPMI-8226 leukemia
IGROV1 ovarian = tested on: IGROV1 ovarian
UACC-62 melanoma = tested on: UACC-62 melanoma
T-47D breast = tested on: T-47D breast
COLO 205 colon = tested on: COLO 205 colon
HT29 colon = tested on: HT29 colon
MCF7 breast = tested on: MCF7 breast
OVCAR-3 ovarian = tested on: OVCAR-3 ovarian
ACHN renal = tested on: ACHN renal
SF-268 CNS = tested on: SF-268 CNS
PC-3 prostate = tested on: PC-3 prostate
HOP-62 NSCLC = tested on: HOP-62 NSCLC
NCI-H460 lung = tested on: NCI-H460 lung
MOLT-4 leukemia = tested on: MOLT-4 leukemia
NCI/ADR-RES ovarian = tested on: NCI/ADR-RES ovarian
CAKI-1 renal = tested on: CAKI-1 renal
SNB-19 CNS = tested on: SNB-19 CNS
NCI-H23 lung = tested on: NCI-H23 lung
SF-295 CNS = tested on: SF-295 CNS
SK-MEL-2 melanoma = tested on: SK-MEL-2 melanoma
MDA-MB-231 breast = tested on: MDA-MB-231 breast
EKVX NSCLC = tested on: EKVX NSCLC
HS 578T breast = tested on: HS 578T breast
A549 NSCLC = tested on: A549 NSCLC
K-562 leukemia = tested on: K-562 leukemia
MDA-N = tested on: MDA-N
SK-MEL-5 melanoma = tested on: SK-MEL-5 melanoma
SF-539 CNS = tested on: SF-539 CNS
KM12 colon = tested on: KM12 colon
UACC-257 melanoma = tested on: UACC-257 melanoma
A498 renal = tested on: A498 renal
UO-31 renal = tested on: UO-31 renal
OVCAR-8 ovarian = tested on: OVCAR-8 ovarian
DU-145 prostate = tested on: DU-145 prostate
HCT-116 colon = tested on: HCT-116 colon
HCT-15 colon = tested on: HCT-15 colon
NCI-H226 lung = tested on: NCI-H226 lung
CCRF-CEM leukemia = tested on: CCRF-CEM leukemia
HL-60(TB) leukemia = tested on: HL-60(TB) leukemia
BT-549 breast = tested on: BT-549 breast
OVCAR-5 ovarian = tested on: OVCAR-5 ovarian
M14 melanoma = tested on: M14 melanoma

Question: Which TGI (TK-10 renal) does the source give for `CCOC(=O)c1c(NC(=S)NCc2ccccc2)sc2c1CCN(C)C2` here?
Answer: > 100 µM

Question: And the TGI (SN12C renal)?
Answer: > 100 µM

Question: And the TGI (RPMI-8226 leukemia)?
Answer: > 100 µM

Question: What about the TGI (IGROV1 ovarian) of the same compound?
Answer: > 100 µM

Question: And the TGI (UACC-62 melanoma)?
Answer: > 100 µM

Question: And the TGI (T-47D breast)?
Answer: > 100 µM

Question: What about the TGI (COLO 205 colon) of the same compound?
Answer: > 100 µM

Question: What about the TGI (HT29 colon) of the same compound?
Answer: > 100 µM

Question: And the TGI (MCF7 breast)?
Answer: > 100 µM

Question: What about the TGI (OVCAR-3 ovarian) of the same compound?
Answer: > 100 µM

Question: And the TGI (ACHN renal)?
Answer: > 100 µM

Question: What about the TGI (SF-268 CNS) of the same compound?
Answer: > 100 µM

Question: And the TGI (PC-3 prostate)?
Answer: > 100 µM

Question: And the TGI (HOP-62 NSCLC)?
Answer: > 100 µM

Question: What about the TGI (NCI-H460 lung) of the same compound?
Answer: > 100 µM

Question: And the TGI (MOLT-4 leukemia)?
Answer: 51 µM

Question: And the TGI (NCI/ADR-RES ovarian)?
Answer: > 100 µM

Question: And the TGI (CAKI-1 renal)?
Answer: > 100 µM

Question: And the TGI (SNB-19 CNS)?
Answer: > 100 µM

Question: What about the TGI (NCI-H23 lung) of the same compound?
Answer: > 100 µM

Question: And the TGI (SF-295 CNS)?
Answer: > 100 µM

Question: And the TGI (SK-MEL-2 melanoma)?
Answer: > 100 µM

Question: And the TGI (MDA-MB-231 breast)?
Answer: > 100 µM

Question: What about the TGI (EKVX NSCLC) of the same compound?
Answer: > 100 µM

Question: What about the TGI (HS 578T breast) of the same compound?
Answer: > 100 µM

Question: And the TGI (A549 NSCLC)?
Answer: > 100 µM

Question: And the TGI (K-562 leukemia)?
Answer: 46.1 µM

Question: What about the TGI (MDA-N) of the same compound?
Answer: > 100 µM

Question: And the TGI (SK-MEL-5 melanoma)?
Answer: > 100 µM

Question: And the TGI (SF-539 CNS)?
Answer: > 100 µM

Question: What about the TGI (KM12 colon) of the same compound?
Answer: > 100 µM

Question: And the TGI (UACC-257 melanoma)?
Answer: > 100 µM

Question: What about the TGI (A498 renal) of the same compound?
Answer: > 100 µM

Question: What about the TGI (UO-31 renal) of the same compound?
Answer: > 100 µM

Question: What about the TGI (OVCAR-8 ovarian) of the same compound?
Answer: > 100 µM

Question: And the TGI (DU-145 prostate)?
Answer: > 100 µM

Question: What about the TGI (HCT-116 colon) of the same compound?
Answer: > 100 µM

Question: What about the TGI (HCT-15 colon) of the same compound?
Answer: > 100 µM

Question: What about the TGI (NCI-H226 lung) of the same compound?
Answer: > 100 µM

Question: What about the TGI (CCRF-CEM leukemia) of the same compound?
Answer: 40.3 µM

Question: What about the TGI (HL-60(TB) leukemia) of the same compound?
Answer: 36.2 µM

Question: And the TGI (BT-549 breast)?
Answer: > 100 µM

Question: What about the TGI (OVCAR-5 ovarian) of the same compound?
Answer: > 100 µM

Question: What about the TGI (M14 melanoma) of the same compound?
Answer: > 100 µM
